From paper PMC12645191, “Dicarboxylate and dicarboxylic acid appended supramolecular self-associating amphiphiles as antimicrobial agents against high priority bacterial pathogens” (Organic & Biomolecular Chemistry, 2025)

Columns and labels:
[1] = tested on: all Gram-positive bacteria tested; assay: inhibition of bacterial growth, span over the Gram-positive panel; format: cell-based, S. aureus, E. faecalis, E. faecium; conditions: SSA 5.0 mM, 20 hours; read-out: inhibition against all Gram-positive bacteria tested (span)
Method: With the self-associative properties of 1–10 established, the antimicrobial activity of these SSAs were determined against a panel of clinically relevant, high-priority pathogens including: P. aeruginosa PAO1; Klebsiella pneumonia (K. pneumoniae) M6; E. coli NCTC 12923; Acinetobacter baumannii (A. baumannii) ATCC 17978; S. aureus ATCC 9144; Enterococcus faecalis (E. faecalis) NCTC 775; and Enterococcus faecium (E. faecium) NCTC 12204. […] However, it should be noted that the SSA stock solution was prepared in a H2O 5% EtOH solution, to ensure that the SSA aggregates formed were in line with those characterised within the scope of the SSA self-association studies.
Section 3: Biological methods
These methods were taken directly from UK Health and Security Office (UKHSA) standard […]
Preparation of Luria Broth media (LB): Yeast extract (5.0 g), tryptone (10.0 g) and sodium chloride (10.0 g) were dissolved in dH₂O (1.0 L) then divided into bottles and autoclaved.
Preparation of Luria Broth (LB) agar plates: Agar (6.0 g) was added to LB (400 mL) and autoclaved. […]
Preparation of 96 well microplate for MIC50: The 1:100 cell suspension (150 µL) was dispensed into individual wells under sterile conditions. […] The plates were sealed using parafilm, then incubated at 37 °C in a microplate reader for 20 hours. […]

Caco-2 cell line = assay: bi-directional permeability in Caco-2 cell line; format: in vitro ADME, human
Method: Metabolic stability was assessed in mouse and rat liver microsomes. Microsomes are subcellular fractions of hepatocytes and contain CYP450s, the predominant enzymes involved in first-pass metabolism.[66] […] A plasma protein binding assay was performed to assess the extent of compound binding to plasma proteins. This is key as only unbound compound is free to distribute and exert a pharmacological effect. […] To assess the potential for this sub-class of SSAs to be developed as drugs for oral administration, Caco-2 permeability assays were also performed, as a cellular model indicative of human intestinal permeability. […]
Sample analysis was by electrospray ionisation. […]
Bi-directional Permeability in Caco-2 Cell Line:
The bi-directional permeability in Caco-2 cell lines was determined by seeding cells onto an HTS Transwell plate. Cells were cultivated for 14-18 days in a cell culture incubator at 37 °C, 5 % CO2, 95 % relative humidity. Cell culture medium was replaced every other day. To assess monolayer integrity the transepithelial electrical resistance (TEER) across the monolayer was measured using Millicell Epithelial volt-ohm meter prior to assay and Lucifer yellow (LY) fluorescence measurement post-assay.
Test and control compounds were prepared in DMSO and diluted in Hank’s Balanced Saline […]
Solution (HBSS, pH 7.4) to a final concentration of 5 or 10 µM. Compound was added to the […]
donor compartment of the transwell plate for both apical to basolateral (A>B) and basolateral […]
to apical (B>A) measurements, with blank HBSS being added to the receiver compartment.
The transwell plate was then incubated at 37 °C, 5 % CO2 for 2 hours.

[2] = Caco-2, 5 or 10 µM, HBSS pH 7.4, 2 hours

Q: Which results are given for O=C(O)CC[C@H](NC(=O)Nc1ccc(C(F)(F)F)cc1)C(=O)O [SSA 2]?
A: inhibition at 5000 µM [1]: 22 to 80%; Efflux Ratio (Caco-2 cell line; Caco-2): 1.71; Recovery (%) AP-BL (Caco-2 cell line; Caco-2): 99.71%; Recovery (%) BL-AP (Caco-2 cell line; Caco-2): 80.26%; Papp (A-B) (Caco-2 cell line; [2]): 0.14 10-6, cm/s; Papp (B-A) (Caco-2 cell line; [2]): 0.24 10-6, cm/s
